Measured values published in patent US9783513B2, “STAT3 inhibitors and their anticancer use” (Ohio State Innovation Foundation, priority 2012, dated 2017).
Entries after “also recorded” stand apart in the source; their conditions may differ. Read-outs that look alike come from different tables or passages of the source.

How the values were obtained:
[1] = tested on: human sarcoma cell line RD2; test: Cell viability (MTT) assay, RD2; type: cell-based
Protocol: Human sarcoma cell lines (RD2, RH30, U2OS) were seeded in 96-well plates at a density of 3,000 cells per well. The cells were incubated at 37° C. for a period of 24 hours. Different concentrations of LY-5 (0.1-10 μM), LY-3 (0.1-20 μM), and LLL12 (0.1-10 μM) prepared as a 20 mM stock solution in sterile DMSO were added in triplicate to the plates in the presence of 10% FBS. 3-(4,5-Dimethylthiazolyl)-2, 5-diphenyltetrazoliumbromide (MTT) was added to evaluate cell viability. The absorbance was read at 595 nm. IC50 values were determined using SigmaPlot 9.0 Software (Systat Software, Inc., San Jose, Calif.).
Alternatively, cells were seeded in 96-well plates in triplicate at a density of 3,000 cells per well and given 24 hours to adhere. Cells were then treated with varying concentrations of the inhibitors in the presence of 10% FBS. The cells were incubated for 72 hours at 37° C. 25 μl of MTT dye (Sigma, #M5655) was added to each sample and incubated for 3.5 hours. After this, 100 μl of N,N-dimethylformamide (Sigma, #D4551) solubilization solution was added to each well. The absorbance at 450 nm was read the following day. Half-Maximal inhibitory concentrations (IC50) were determined using Sigma Plot 9.0 software (Systat Software Inc.).
Table 7 below lists specific compounds as well as experimentally determined STAT3 activity in a cell-based assay. The STAT3 activity was determined using the cell viability assays with human sarcoma cell lines (RD2, RH30, U2OS) as described above. The compound reference numbers (“Ref. No.”) in Table 7 correspond to the compound numbers used in Table 3.

[2] = tested on: phosphorylated STAT3 (Tyr705); test: Western blot, constitutive STAT3 phosphorylation; type: cell-based, human
STAT5 = test: Western blot, STAT5 after OSM stimulation; type: cell-based, human; conditions: MCF-7; 1 and 2.5 μM; OSM 50 ng/mL
Protocol: RH30 cells were treated with DMSO, LY-5 (0.25-1 μM) and LY-3 (0.5-2.5 μM) prepared as a 20 mM stock solution in sterile DMSO at 60% to 80% confluence in the presence of 10% FBS for 24 hours. The sarcoma cell line EW8 was treated with DMSO and LY-5 (0.5-2.5 μM) prepared as a 20 mM stock solution in sterile DMSO at 60% to 80% confluence in the presence of 10% FBS for 24 hours. MCF-7 cells and DAOY cells were treated with DMSO, 25-50 ng/ml of IL-6, LY-5 (0.25-1 μM) or LY-3 (0.5-2.5 μM) prepared as a 20 mM stock solution in sterile DMSO, protein expressions of P-STAT3 (Tyr705) and STAT3 were tested. DAOY cells were treated with DMSO, 50 ng/ml of IFN-γ, LY-5 (1-5 μM) prepared as a 20 mM stock solution in sterile DMSO, protein expressions of P-STAT3 (Tyr705) and STAT3 were tested. MCF-7 cells were treated with DMSO, 50 ng/ml of OSM, LY-5 (1-2.5 μM) or LLL12 (1-2.5 μM) prepared as a 20 mM stock solution in sterile DMSO, protein expressions of P-STAT3 (Tyr705), P-STAT1, P-STAT5, P-ERK (T202/Y204), P-AKT, STAT3 and STAT1 were tested.
MCF-7 breast cancer cells were seeded in 10 cm plates and allowed to adhere overnight. The following day, the cells were serum-starved. The cells were then left untreated or were treated with LY-5 and LLL12 (1 μM and 2.5 μM) prepared as a 20 mM stock solution in sterile DMSO or DMSO. […] The cells were harvested after 30 minutes and analyzed by Western blot.

PLK3 = biological target: T1, PLK3 (Homo sapiens, UniProt Q9H4B4); test: Kinase screening (KINOMESCAN), PLK3; type: binding
T1 construct: purchased KINOMESCAN, San Diego, Calif
T1 sequence (Q9H4B4 whole entry): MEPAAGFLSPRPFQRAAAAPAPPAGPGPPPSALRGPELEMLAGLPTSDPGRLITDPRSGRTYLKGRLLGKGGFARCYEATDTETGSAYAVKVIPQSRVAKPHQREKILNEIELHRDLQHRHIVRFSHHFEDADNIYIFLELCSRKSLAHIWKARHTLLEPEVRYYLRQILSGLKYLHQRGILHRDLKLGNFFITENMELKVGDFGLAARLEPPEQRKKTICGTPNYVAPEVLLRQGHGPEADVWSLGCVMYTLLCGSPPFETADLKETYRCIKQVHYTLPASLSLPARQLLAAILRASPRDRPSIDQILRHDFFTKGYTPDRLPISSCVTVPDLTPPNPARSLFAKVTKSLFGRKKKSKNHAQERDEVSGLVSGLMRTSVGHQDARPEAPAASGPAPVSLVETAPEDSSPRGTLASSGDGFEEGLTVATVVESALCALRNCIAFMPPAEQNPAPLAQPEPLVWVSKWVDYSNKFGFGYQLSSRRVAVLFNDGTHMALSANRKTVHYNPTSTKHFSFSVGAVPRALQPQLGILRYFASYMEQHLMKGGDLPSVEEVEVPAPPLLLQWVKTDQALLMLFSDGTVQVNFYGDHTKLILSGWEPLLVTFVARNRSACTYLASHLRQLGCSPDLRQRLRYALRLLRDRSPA
Protocol: The potential off-target activity of a representative compound was assessed in a screen against 96 protein and lipid kinases (see FIGS. 56 and 60). The test compound, LY-5, was assessed at 1000 and 5000 nM concentration using in vitro kinase assays. The assays were carried out using standard techniques known to one skilled in the art (KINOMESCAN™, San Diego, Calif.). The data in FIG. 60 show the % inhibition for the tested concentrations of LY-5 in the panel of kinases assessed. The interaction map provides a visualization of the relationship of these inhibition data from FIG. 60 to various kinase families.

OS-1 tumor xenografts = test: OS-1 tumor xenografts; type: in vivo, mouse; conditions: 5 mg/kg via IP for 5 days
Protocol: In order to provide preliminary data regarding potential toxicities from dosing of LY5, C57BL/6 tumor-free mice were treated with daily intraperitoneal (IP) injections of LY5 at 5 or 10 mg/kg for 7 days. […] Additionally, LY5 at a dose of 5 mg/kg via IP for 5 days inhibited growth of OS-1 tumor xenografts (90% tumor volume compared to baseline), while tumor in vehicle treated mice continued to grow (143% tumor volume compared to baseline).

Compound: NS(=O)(=O)c1cccc2c1C(=O)C=C(Nc1cccnc1)C2=O [LY-5, 5,8-dioxo-6-(pyridin-3-ylamino)-5,8-dihydronaphthalene-1-sulfonamide]
- IC50 ([1]; Table 7, read-out: IC50 RD2): 1390 nM
- IC50 ([1]; Table 8, read-out: IC50 values vs. cell lines, RD2): 1390 nM
- constitutive STAT3 phosphorylation at Y705 ([2]; DAOY, UW288-1 and UW426, 0-5 μM, 2 h): decrease in STAT3 phosphorylation
- constitutive STAT3 phosphorylation ([2]; EW8, 0.5-1 μM, 8 h): decrease in STAT3 phosphorylation; also recorded: dose-dependent decrease in formation of P-STAT3
- P-STAT3 ([2]; FIG. 40, HeLa / OS-17 as printed, 0-5 μM, 2 h): decrease in STAT3 phosphorylation
- constitutive STAT3 phosphorylation at Y705 ([2]; HCT-116, 0-5 μM, 2 h, vs LLL12): inhibits constitutive STAT3 phosphorylation at Y705 and is more potent than LLL12
- P-STAT3 ([2]; OS-17, 0-5 μM, 2 h): decrease in STAT3 phosphorylation
- P-STAT3 ([2]; RD2, 0-2.5 μM, 2 h, FIG. 58): decrease in STAT3 phosphorylation
- constitutive STAT3 phosphorylation at Y705 ([2]; RH30, RD2 and EW8, 0-1 μM, 2 h): decrease in STAT3 phosphorylation
- constitutive STAT3 phosphorylation at Y705 ([2]; RH30, 0-1 μM, 2 h, FIG. 57): decrease in STAT3 phosphorylation
- STAT3 phosphorylation at Y705 and S727 ([2]; RH30, 5 μM in DMSO or ethanol, 2 h): decrease in STAT3 phosphorylation at Y705 and S727
- concentration almost completely inhibiting Tyr705 phosphorylation ([2]; RH30, 16 h): 0.5 µM
- constitutive STAT3 phosphorylation ([2]; RH30, LY-3 0.5-2.5 μM, LY-5 0.25-1 μM, 16 h): decrease in STAT3 phosphorylation; also recorded: reduced in a dose-dependent manner
- P-STAT3 ([2]; RH30 and RD2, 0-2.5 μM, 2 h): decrease in STAT3 phosphorylation
- constitutive STAT3 phosphorylation at Y705 ([2]; SW480, 0-5 μM, 2 h): decrease in STAT3 phosphorylation
- constitutive STAT3 phosphorylation at Y705 ([2]; UW288-1 and UW426, 0-1 μM, 2 h): decrease in STAT3 phosphorylation
- P-STAT3 ([2]; UW288-1 and UW426, 0-5 μM, 2 h, FIG. 38): decrease in STAT3 phosphorylation
- inhibition of STAT5 (STAT5): exhibit inhibition
- inhibition (PLK3; at 1000 nM): no inhibition
- activity against PLK3 (PLK3; at 5 μM, FIG. 60): some activity
- inhibition at 5 µM (PLK3; at 5000 nM): 72%
- tumor volume compared to baseline (OS-1 tumor xenografts): 90%
